The NIST ThermoML archive (doi:10.1016/j.jct.2006.03.009)

Assay: cn = amount concentration of the nth substance listed, in mol/dm3
Settings: Liquid; for mass density: 7 kPa, Pycnometric method; for speed of sound: 101 kPa

[Cl-].[K+] [potassium chloride] + O
c1 = 1.5
Settings	mass density [kg/m3]	speed of sound [m/s]
303.15 K	1061.4	1584
308.15 K	1059.7	1590.4
313.15 K	1057.8	1595.8
318.15 K	1055.6	1601.6
323.15 K	1053.3	1606.2

O=S(=O)([O-])[O-].[K+].[K+] [potassium sulfate] + O
c1 = 0.5
Settings	mass density [kg/m3]	speed of sound [m/s]
303.15 K	1059.3	1571.2
308.15 K	1057.9	1578.8
313.15 K	1056.1	1587.6
318.15 K	1054.2	1592.6
323.15 K	1051.9	1597.6

O=[N+]([O-])[O-].[K+] [potassium nitrate] + O
c1 = 1
Settings	mass density [kg/m3]	speed of sound [m/s]
303.15 K	1052.9	1541.8
308.15 K	1051.1	1550.2
313.15 K	1049	1557.4
318.15 K	1046.7	1563.6
323.15 K	1044.2	1568.4
